Results reported in patent US9789100B2, “Compounds as rearranged during transfection (RET) inhibitors” (GlaxoSmithKline Intellectual Property Development Limited, priority 2013, dated 2017).
pIC50: −log10 of the molar value. Counter-ions that a name gives are not always drawn. Like-named read-outs stand apart in the source and are kept apart here.

Key:
[1] = target: Human RET kinase cytoplasmic domain (Homo sapiens (Human), UniProt P07949); assay: RET kinase enzymatic assay; type: biochemical; details: human RET kinase enzymatic assay (Table 2)
Method: RET Kinase Enzymatic Assay
GST-RET was purified using glutathione sepharose chromatography. The RET kinase enzymatic assay was performed in a total volume of 10 uL with increasing concentrations of RET kinase inhibitor as a singlet in a 384 well format as follows: RET inhibitor compound plates are prepared by adding 100 nL of RET inhibitor at different concentrations to a 384-well plate. 5 μL/well of a 2× enzyme mix (50 mM HEPES (4-(2-hydroxyethyl)-1-piperazineethanesulfonic acid); 1 mM CHAPS (3[(3-cholamidopropyl)dimethylammonio]-1-propanesulfonate); 0.1 mg/mL BSA (bovine serum albumin); 1 mM DTT (dithiothreitol); 0.2 nM RET kinase) was added to the 384-well plate and incubated for 30 minutes at 23° C.

TT cells = assay: RET kinase cell-based proliferation assay; parameters: species or system human; details: 192 h, read-out: RET IC50
Description: RET Kinase Cell-Based Proliferation Assay

[2] = target: constitutive RET kinase phosphorylation in TT cells (Homo sapiens (Human), UniProt P07949, C634W); assay: RET kinase cell-based mechanistic assay
Method: RET Kinase Cell-Based Mechanistic Assay
The potency of the compound of the invention was tested for its ability to inhibit constitutive RET kinase phosphorylation in cell-based assay. […] 1.0E5 TT cells/well were plated in a 96-well cell culture plate and allowed to adhere overnight. […] IC50s were fitted using GraphPad Prism to a sigmoidal dose response.

[3] = human RET kinase cell-based proliferation assay, TT cells, eight days (Table 4)

Sequence of Human RET kinase cytoplasmic domain (P07949 658-1114): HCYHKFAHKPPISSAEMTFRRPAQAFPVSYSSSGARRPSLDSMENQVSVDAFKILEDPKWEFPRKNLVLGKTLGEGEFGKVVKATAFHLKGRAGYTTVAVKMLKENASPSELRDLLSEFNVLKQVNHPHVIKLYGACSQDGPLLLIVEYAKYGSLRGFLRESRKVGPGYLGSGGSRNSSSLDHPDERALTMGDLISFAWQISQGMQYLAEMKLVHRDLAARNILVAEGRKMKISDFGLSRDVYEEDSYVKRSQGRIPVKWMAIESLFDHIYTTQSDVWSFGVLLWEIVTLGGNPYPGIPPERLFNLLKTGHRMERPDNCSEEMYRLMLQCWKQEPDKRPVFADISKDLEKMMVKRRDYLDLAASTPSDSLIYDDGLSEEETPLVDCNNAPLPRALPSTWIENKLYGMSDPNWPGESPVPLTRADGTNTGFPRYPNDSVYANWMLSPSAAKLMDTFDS
Sequence of constitutive RET kinase phosphorylation in TT cells (P07949 29-1114 C634W): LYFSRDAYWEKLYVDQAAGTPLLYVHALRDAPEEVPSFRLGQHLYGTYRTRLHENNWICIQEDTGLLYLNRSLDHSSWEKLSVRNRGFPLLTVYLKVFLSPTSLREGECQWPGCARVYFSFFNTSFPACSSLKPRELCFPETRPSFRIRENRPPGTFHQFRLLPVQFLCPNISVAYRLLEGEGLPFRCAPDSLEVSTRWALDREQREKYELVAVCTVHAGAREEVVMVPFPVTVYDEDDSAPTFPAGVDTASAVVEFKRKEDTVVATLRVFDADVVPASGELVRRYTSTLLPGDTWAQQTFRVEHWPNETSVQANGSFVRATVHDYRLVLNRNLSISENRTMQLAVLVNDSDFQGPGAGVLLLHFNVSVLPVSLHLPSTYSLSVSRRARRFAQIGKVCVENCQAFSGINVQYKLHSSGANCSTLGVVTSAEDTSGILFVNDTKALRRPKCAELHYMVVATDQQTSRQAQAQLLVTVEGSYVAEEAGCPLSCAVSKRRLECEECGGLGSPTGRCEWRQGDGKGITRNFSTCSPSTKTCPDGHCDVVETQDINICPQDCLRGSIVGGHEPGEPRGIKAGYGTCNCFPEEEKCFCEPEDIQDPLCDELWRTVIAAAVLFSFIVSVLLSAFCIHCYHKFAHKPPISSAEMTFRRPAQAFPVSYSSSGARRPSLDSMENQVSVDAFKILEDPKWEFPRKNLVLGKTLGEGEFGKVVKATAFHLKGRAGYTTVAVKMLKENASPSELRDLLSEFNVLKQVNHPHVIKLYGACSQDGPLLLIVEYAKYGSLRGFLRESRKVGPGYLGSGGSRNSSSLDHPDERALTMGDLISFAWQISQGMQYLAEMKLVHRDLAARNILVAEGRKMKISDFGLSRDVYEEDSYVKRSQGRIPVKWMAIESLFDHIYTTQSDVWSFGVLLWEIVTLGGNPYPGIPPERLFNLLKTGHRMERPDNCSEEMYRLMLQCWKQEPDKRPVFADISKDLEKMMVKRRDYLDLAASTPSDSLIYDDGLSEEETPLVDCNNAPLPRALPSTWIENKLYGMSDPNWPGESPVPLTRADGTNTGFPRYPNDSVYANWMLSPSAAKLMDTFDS

| Compound | pIC50 [1] | pIC50 (TT cells; Homo sapiens, TT) | pIC50 [2] | pIC50 (TT cells; [3]) |
| --- | --- | --- | --- | --- |
| CCOc1cc(=O)[nH]cc1-c1ccc(CC(=O)Nc2ccc(C(C)(C)C(F)(F)F)nc2)c(F)c1 [Example 37, 2-(4-(4-ethoxy-6-oxo-1,6-dihydropyridin-3-yl)-2-fluorophenyl)-N-(6-(1,1,1-trifluoro-2-methylpropan-2-yl)pyridin-3-yl)acetamide hydrochloride] | > 7.00 | 5.00 to 6.30 | 6.30 to 7.00 |  |
| CCOc1cc(=O)[nH]cc1-c1ccc(CC(=O)Nc2cnc(C(C)(C)CO)c(C(F)(F)F)c2)c(F)c1 [Example 31, 2-(4-(4-Ethoxy-6-oxo-1,6-dihydropyridin-3-yl)-2-fluorophenyl)-N-(6-(1-hydroxy-2-methylpropan-2-yl)-5-(trifluoromethyl)pyridin-3-yl)acetamide] | > 7.00 |  | > 7.00 | > 7.00 |
| CCOc1cc(-c2ccc(CC(=O)Nc3cc(OCCN(C)C)cc(C(F)(F)F)c3)c(F)c2)c[nH]c1=O [Example 46, N-(3-(2-(dimethylamino)ethoxy)-5-(trifluoromethyl)phenyl)-2-(4-(5-ethoxy-6-oxo-1,6-dihydropyridin-3-yl)-2-fluorophenyl)acetamide] | > 7.00 |  | > 7.00 | > 7.00 |
| CCOc1cc(-c2ccc(CC(=O)Nc3cc(OCCN4CCOCC4)cc(C(F)(F)F)c3)c(F)c2)c[nH]c1=O [Example 39, 2-(4-(5-ethoxy-6-oxo-1,6-dihydropyridin-3-yl)-2-fluorophenyl)-N-(3-(2-morpholinoethoxy)-5-(trifluoromethyl)phenyl)acetamide] | > 7.00 |  | > 7.00 | 6.30 to 7.00 |
| CCOc1cc(-c2ccc(CC(=O)Nc3cc(-c4cnn(C)c4)cc(C(F)(F)F)c3)c(F)c2)c[nH]c1=O [Example 45, 2-(4-(5-ethoxy-6-oxo-1,6-dihydropyridin-3-yl)-2-fluorophenyl)-N-(3-(1-methyl-1H-pyrazol-4-yl)-5-(trifluoromethyl)phenyl)acetamide hydrochloride] | > 7.00 | 6.30 to 7.00 | > 7.00 |  |
